Assay results as given in patent publication US20250296953A1, “3,4-THIAZOLO-STEROIDS AND METHODS OF MAKING AND USING THE SAME” (Arkansas State University - Jonesboro, priority 2018, published 2025).
Where two headings read alike, the source gives them in different places.

Legend:
[1] = system: 60 different human tumor cell lines; conditions: read-out: LC50, five dose
NCI-H522 (NSCLC) = assay: NCI 60 one dose screen; type: cell-based, human; conditions: Non-small Cell Lung Cancer
SF-539 = assay: NCI 60 one dose screen; type: cell-based, human; conditions: one dose; CNS Cancer; SF-539
glioblastoma (SF-295) = assay: NCI 60 five dose screen
HCT-15 (Colon Cancer) = assay: NCI 60 one dose screen; type: cell-based, human
[2] = system: 60 different human tumor cell lines; assay: NCI Development Therapeutics Program 60 cell line screen, one dose; type: cell-based
RPMI-8226 = assay: NCI 60 five dose screen
[3] = RPMI-8226 (Leukemia), five dose

“(1S,2R,13R,14S,18S)-7-(3-fluoroanilino)-2,18-dimethyl-6-thia-8-azapentacyclo[11.7.0.02,10.05,9.014,18]icosa-5(9),7,10-trien-17-one [IIa.8]” was tested, and the CC50 ([1]; A498 (Renal Cancer)) was > 100 µM, the CC50 ([1]; A549/ATCC (Non-small Cell Lung Cancer)) was > 100 µM and the CC50 ([1]; ACHN (Renal Cancer)) was 5.92 µM. The CC50 ([1]; BT-549 (Breast Cancer)) was 8.49 µM, the CC50 ([1]; CAKI-1 (Renal Cancer)) was 38.1 µM and the CC50 ([1]; CCRF-CEM (Leukemia)) was > 100 µM. For the same substance, the CC50 ([1]; COLO 205 (Colon Cancer)) was 24.4 µM, the CC50 ([1]; DU-145 (Prostate Cancer)) was 27.4 µM and the CC50 ([1]; EKVX (Non-small Cell Lung Cancer)) was > 100 µM. The CC50 ([1]; HCC-2998 (Colon Cancer)) was 88 µM, the CC50 ([1]; HCT-15 (Colon Cancer)) was 14.7 µM and the CC50 ([1]; HCT-116 (Colon Cancer)) was 6.58 µM. For the same substance, the CC50 ([1]; HL-60(TB) (Leukemia)) was > 100 µM, the CC50 ([1]; HOP-62 (Non-small Cell Lung Cancer)) was 24.5 µM and the CC50 ([1]; HOP-92 (Non-small Cell Lung Cancer)) was 7.73 µM. The CC50 ([1]; HT29 (Colon Cancer)) was 8.28 µM, the CC50 ([1]; IGROV1 (Ovarian Cancer)) was 7.76 µM and the CC50 ([1]; K-562 (Leukemia)) was > 100 µM. For the same substance, the CC50 ([1]; KM12 (Colon Cancer)) was 79.2 µM, the CC50 ([1]; LOX IMVI (Melanoma)) was 6.16 µM and the CC50 ([1]; M14 (Melanoma)) was 81.4 µM. It also gave a CC50 ([1]; MALME-3M (Melanoma)) of 26.7 µM, a CC50 ([1]; MCF7 (Breast Cancer)) of 7.87 µM and a CC50 ([1]; MDA-MB-231/ATCC (Breast Cancer)) of 9.99 µM. For the same substance, the CC50 ([1]; MDA-MB-435 (Melanoma)) was > 100 µM, the CC50 ([1]; MOLT-4 (Leukemia)) was > 100 µM and the CC50 ([1]; NCI-H23 (Non-small Cell Lung Cancer)) was 77.7 µM. The CC50 ([1]; NCI-H226 (Non-small Cell Lung Cancer)) was 81.5 µM, the CC50 ([1]; NCI-H460 (Non-small Cell Lung Cancer)) was > 100 µM and the CC50 ([1]; NCI-H522 (Non-small Cell Lung Cancer)) was 5.75 µM. The CC50 ([1]; NCI/ADR-RES (Ovarian Cancer)) was > 100 µM, the CC50 ([1]; OVCAR-3 (Ovarian Cancer)) was 6.34 µM and the CC50 ([1]; OVCAR-4 (Ovarian Cancer)) was > 100 µM. For the same substance, the CC50 ([1]; OVCAR-5 (Ovarian Cancer)) was > 100 µM, the CC50 ([1]; OVCAR-8 (Ovarian Cancer)) was 68.7 µM and the CC50 ([1]; PC-3 (Prostate Cancer)) was 7.94 µM. For the same substance, the CC50 ([1]; RXF 393 (Renal Cancer)) was 7.31 µM, the CC50 ([1]; SF-268 (CNS Cancer)) was > 100 µM and the CC50 ([1]; SK-MEL-2 (Melanoma)) was 26.7 µM. The CC50 ([1]; SK-MEL-5 (Melanoma)) was 9.24 µM, the CC50 ([1]; SK-OV-3 (Ovarian Cancer)) was > 100 µM and the CC50 ([1]; SN12C (Renal Cancer)) was 36 µM. For the same substance, the CC50 ([1]; SNB-19 (CNS Cancer)) was 22.7 µM, the CC50 ([1]; SNB-75 (CNS Cancer)) was > 100 µM and the CC50 ([1]; SW-620 (Colon Cancer)) was > 100 µM. The CC50 ([1]; T-47D (Breast Cancer)) was > 100 µM, the CC50 ([1]; TK-10 (Renal Cancer)) was 8.72 µM and the CC50 ([1]; U251 (CNS Cancer)) was 8.51 µM. For the same substance, the CC50 ([1]; UACC-62 (Melanoma)) was 6.31 µM, the CC50 ([1]; UACC-257 (Melanoma)) was > 100 µM and the CC50 ([1]; UO-31 (Renal Cancer)) was 7.69 µM. For the same substance, the “Growth Percent” value (NCI-H522 (NSCLC)) was −43.73%, the “Growth Percent” value (SF-539) was −5.93% and the GI50 (glioblastoma (SF-295); SF-295 (CNS Cancer), five dose) was 1.19 µM. The TGI (glioblastoma (SF-295); SF-295 (CNS Cancer), five dose) was 2.97E−6, the GI50 (glioblastoma (SF-295); glioblastoma SF-295) was 1.19 µM and the CC50 (glioblastoma (SF-295); read-out: LC50, SF-295 (CNS Cancer), five dose) was 7.37 µM. For the same substance, the “Growth Percent” value (HCT-15 (Colon Cancer)) was 6.88%, the “Growth Percent” value ([2]; Breast Cancer, BT-549) was −8.61% and the “Growth Percent” value ([2]; Breast Cancer, HS 578T) was 35.44%. For the same substance, the “Growth Percent” value ([2]; Breast Cancer, MCF7) was 4.46%, the “Growth Percent” value ([2]; Breast Cancer, MDA-MB-231/ATCC) was 38.20% and the “Growth Percent” value ([2]; Breast Cancer, MDA-MB-468) was −2.99%. For the same substance, the “Growth Percent” value ([2]; Breast Cancer, T-47D) was −0.76%, the “Growth Percent” value ([2]; CNS Cancer, SF-268) was 55.66% and the “Growth Percent” value ([2]; CNS Cancer, SNB-19) was 62.83%. For the same substance, the “Growth Percent” value ([2]; CNS Cancer, SNB-75) was 18.66%, the “Growth Percent” value ([2]; CNS Cancer, U251) was 15.66% and the “Growth Percent” value ([2]; Colon Cancer, COLO 205) was 47.59%. The “Growth Percent” value ([2]; Colon Cancer, HCC-2998) was 75.50%, the “Growth Percent” value ([2]; Colon Cancer, HCT-116) was −68.78% and the “Growth Percent” value ([2]; Colon Cancer, HT29) was −3.32%. The “Growth Percent” value ([2]; Colon Cancer, KM12) was 38.74%, the “Growth Percent” value ([2]; Colon Cancer, SW-620) was 4.62% and the “Growth Percent” value ([2]; Leukemia, CCRF-CEM) was 4.95%. The “Growth Percent” value ([2]; Leukemia, HL-60(TB)) was 8.58%, the “Growth Percent” value ([2]; Leukemia, K-562) was −0.51% and the “Growth Percent” value ([2]; Leukemia, MOLT-4) was −3.78%. The “Growth Percent” value ([2]; Leukemia, RPMI-8226) was −22.26%, the “Growth Percent” value ([2]; Leukemia, SR) was −11.87% and the “Growth Percent” value ([2]; Melanoma, LOX IMVI) was 6.22%. For the same substance, the “Growth Percent” value ([2]; Melanoma, M14) was 44.82%, the “Growth Percent” value ([2]; Melanoma, MALME-3M) was 22.82% and the “Growth Percent” value ([2]; Melanoma, MDA-MB-435) was 35.93%. The “Growth Percent” value ([2]; Melanoma, SK-MEL-2) was 21.81%, the “Growth Percent” value ([2]; Melanoma, SK-MEL-5) was 32.06% and the “Growth Percent” value ([2]; Melanoma, SK-MEL-28) was 39.44%. For the same substance, the “Growth Percent” value ([2]; Melanoma, UACC-62) was 37.50%, the “Growth Percent” value ([2]; Melanoma, UACC-257) was 73.04% and the “Growth Percent” value ([2]; Non-small Cell Lung Cancer, A549/ATCC) was 35.39%. The “Growth Percent” value ([2]; Non-small Cell Lung Cancer, EKVX) was 46.43%, the “Growth Percent” value ([2]; Non-small Cell Lung Cancer, HOP-62) was 20.40% and the “Growth Percent” value ([2]; Non-small Cell Lung Cancer, HOP-92) was 68.93%. The “Growth Percent” value ([2]; Non-small Cell Lung Cancer, NCI-H23) was 55.09%, the “Growth Percent” value ([2]; Non-small Cell Lung Cancer, NCI-H226) was 71.91% and the “Growth Percent” value ([2]; Non-small Cell Lung Cancer, NCI-H322M) was 55.83%. The “Growth Percent” value ([2]; Non-small Cell Lung Cancer, NCI-H460) was 51.98%, the “Growth Percent” value ([2]; Ovarian Cancer, IGROV1) was 60.02% and the “Growth Percent” value ([2]; Ovarian Cancer, NCI/ADR-RES) was 55.43%. For the same substance, the “Growth Percent” value ([2]; Ovarian Cancer, OVCAR-3) was −5.24%, the “Growth Percent” value ([2]; Ovarian Cancer, OVCAR-4) was 59.21% and the “Growth Percent” value ([2]; Ovarian Cancer, OVCAR-5) was 65.53%. The “Growth Percent” value ([2]; Ovarian Cancer, OVCAR-8) was 39.56%, the “Growth Percent” value ([2]; Ovarian Cancer, SK-OV-3) was −18.44% and the “Growth Percent” value ([2]; Prostate Cancer, DU-145) was 17.23%. The “Growth Percent” value ([2]; Renal Cancer, 786-0) was −13.93%, the “Growth Percent” value ([2]; Renal Cancer, A498) was 22.95% and the “Growth Percent” value ([2]; Renal Cancer, ACHN) was 1.56%. The “Growth Percent” value ([2]; Renal Cancer, CAKI-1) was 50.45%, the “Growth Percent” value ([2]; Renal Cancer, RXF 393) was −28.44% and the “Growth Percent” value ([2]; Renal Cancer, SN12C) was 28.50%. For the same substance, the “Growth Percent” value ([2]; Renal Cancer, TK-10) was 20.27%, the “Growth Percent” value ([2]; Renal Cancer, UO-31) was −26.89% and the GI50 (RPMI-8226; [3]) was 0.859 µM. The TGI (RPMI-8226; [3]) was 3.90E−6, the “50% growth inhibition (GI50)” value (RPMI-8226; leukemia cell line RPMI-8226) was “submicromolar” and the CC50 (RPMI-8226; read-out: LC50, RPMI-8226 (Leukemia), five dose) was > 100 µM.
